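Cells were grown in 96-well plates and exposed to each compound for 48 hours at five concentrations; endpoints were interpolated linearly between bracketing concentrations, or set to the highest concentration if not reached. GI50 = concentration required for 50% inhibition of growth. TGI marks complete inhibition of growth.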
Tests used:
Assay in all cases: NCI tumour cell line growth inhibition, 48 h
[1] = test system: OVCAR-5 ovarian
[2] = test system: SF-295 CNS
[3] = test system: SR leukemia
[4] = test system: OVCAR-4 ovarian
[5] = test system: HT29 colon
[6] = test system: SK-MEL-2 melanoma
[7] = test system: UACC-62 melanoma
[8] = test system: SN12C renal
[9] = test system: MDA-MB-231 breast
[10] = test system: SNB-75 CNS
[11] = test system: A549 NSCLC
[12] = test system: SW-620 colon
[13] = test system: UACC-257 melanoma
[14] = test system: MDA-MB-435
[15] = test system: 786-0 renal
[16] = test system: U251 CNS
[17] = test system: HS 578T breast
[18] = test system: RXF 393 renal
[19] = test system: M14 melanoma
[20] = test system: K-562 leukemia
[21] = test system: NCI-H522 lung
[22] = test system: A498 renal
[23] = test system: OVCAR-8 ovarian
[24] = test system: T-47D breast
[25] = test system: BT-549 breast
[26] = test system: EKVX NSCLC
[27] = test system: KM12 colon
[28] = test system: UO-31 renal
[29] = test system: MOLT-4 leukemia

**Q.** Which TGI [1] does the source give for `NC(Cc1c[nH]c2ccc(F)cc12)C(=O)O` (configuration not stated) here?
**A.** > 2500 µM

**Q.** And the GI50 [2]?
**A.** 609 µM

**Q.** What about the TGI [2] of the same molecule?
**A.** 1500 µM

**Q.** What about the GI50 [3] of the same molecule?
**A.** 1200 µM

**Q.** And the TGI [3]?
**A.** > 2500 µM

**Q.** And the GI50 [4]?
**A.** 953 µM

**Q.** What about the TGI [4] of the same molecule?
**A.** > 2500 µM

**Q.** What about the GI50 [5] of the same molecule?
**A.** 911 µM

**Q.** What about the TGI [5] of the same molecule?
**A.** > 2500 µM

**Q.** And the GI50 [6]?
**A.** 2250 µM

**Q.** And the TGI [6]?
**A.** > 2500 µM

**Q.** And the GI50 [7]?
**A.** 755 µM

**Q.** What about the TGI [7] of the same molecule?
**A.** > 2500 µM

**Q.** And the GI50 [8]?
**A.** 918 µM

**Q.** And the TGI [8]?
**A.** > 2500 µM

**Q.** And the GI50 [9]?
**A.** 600 µM

**Q.** And the TGI [9]?
**A.** 1670 µM

**Q.** And the GI50 [10]?
**A.** 489 µM

**Q.** What about the TGI [10] of the same molecule?
**A.** 1390 µM

**Q.** What about the GI50 [11] of the same molecule?
**A.** 855 µM

**Q.** And the TGI [11]?
**A.** > 2500 µM

**Q.** What about the GI50 [12] of the same molecule?
**A.** 1170 µM

**Q.** And the TGI [12]?
**A.** > 2500 µM

**Q.** What about the GI50 [13] of the same molecule?
**A.** 475 µM

**Q.** What about the TGI [13] of the same molecule?
**A.** 1220 µM

**Q.** And the GI50 [14]?
**A.** 785 µM

**Q.** And the TGI [14]?
**A.** > 2500 µM

**Q.** What about the GI50 [15] of the same molecule?
**A.** 1200 µM

**Q.** And the TGI [15]?
**A.** > 2500 µM

**Q.** What about the GI50 [16] of the same molecule?
**A.** 728 µM

**Q.** And the TGI [16]?
**A.** > 2500 µM

**Q.** And the GI50 [17]?
**A.** 506 µM

**Q.** And the TGI [17]?
**A.** 1590 µM

**Q.** And the GI50 [18]?
**A.** 887 µM

**Q.** And the TGI [18]?
**A.** > 2500 µM

**Q.** And the GI50 [19]?
**A.** 643 µM

**Q.** What about the TGI [19] of the same molecule?
**A.** > 2500 µM

**Q.** And the GI50 [20]?
**A.** 887 µM

**Q.** What about the TGI [20] of the same molecule?
**A.** > 2500 µM

**Q.** What about the GI50 [21] of the same molecule?
**A.** 1460 µM

**Q.** And the TGI [21]?
**A.** > 2500 µM

**Q.** And the GI50 [22]?
**A.** 580 µM

**Q.** And the TGI [22]?
**A.** 1630 µM

**Q.** What about the GI50 [23] of the same molecule?
**A.** 751 µM

**Q.** And the TGI [23]?
**A.** > 2500 µM

**Q.** What about the GI50 [24] of the same molecule?
**A.** 1730 µM

**Q.** What about the TGI [24] of the same molecule?
**A.** > 2500 µM

**Q.** What about the GI50 [25] of the same molecule?
**A.** 580 µM

**Q.** What about the TGI [25] of the same molecule?
**A.** 1620 µM

**Q.** What about the GI50 [26] of the same molecule?
**A.** 1000 µM

**Q.** What about the TGI [26] of the same molecule?
**A.** > 2500 µM

**Q.** And the GI50 [27]?
**A.** 760 µM

**Q.** And the TGI [27]?
**A.** > 2500 µM

**Q.** And the GI50 [28]?
**A.** 444 µM

**Q.** What about the TGI [28] of the same molecule?
**A.** 1950 µM

**Q.** What about the GI50 [29] of the same molecule?
**A.** 1030 µM

**Q.** And the TGI [29]?
**A.** > 2500 µM
